These results are taken from ChEMBL document CHEMBL1142450, “3-(Imidazolyl methyl)-3-aza-bicyclo[3.1.0]hexan-6-yl)methyl ethers: a novel series of mGluR2 positive allosteric modulators” (Bioorg Med Chem Lett, 2008).

Common to all, as to format: ADME, organism-based
Data set [1] is described as follows: Ratio of drug level in brain to plasma in Sprague-Dawley rat at 10 mg/kg, sc. More on the design: dose 10 mg/kg, route subcutaneous. The note with it: brain and plasma, read-out: BPR.
Data set [2] can be described thus: Oral bioavailability in Sprague-Dawley rat at 5 mg/kg. The note with it: in vivo.
Data set [3] can be described thus: Fraction absorbed in Sprague-Dawley rat at 5 mg/kg, po. The note with it: in vivo, read-out: Fabs. Also on record: dose 5 mg/kg, route oral.

Regarding `Cn1c(CN2C[C@@H]3C(COc4ccccc4)[C@@H]3C2)nc2ccccc21` (stereo partly drawn), in data set [1], the Kp came out at 2. Moreover, in data set [2], the bioavailability is under 2%. Moreover, the Fa in data set [3] worked out at 5%.
For `Cn1c(CN2C[C@@H]3C(COc4cccc(Cl)c4)[C@@H]3C2)nc2ncccc21` (stereo partly drawn), the bioavailability in data set [2] is 79%. Further, the Fa in data set [3] was determined as 84%.
As for `Cn1c(CN2C[C@@H]3C(COc4ccc(Cl)cn4)[C@@H]3C2)nc2ccccc21` (stereo partly drawn), in data set [2], the bioavailability came out at 20%. The Fa in data set [3] stood at 72%.
In data set [2], `Cn1c(CN2C[C@@H]3C(COc4ccc(C(F)(F)F)cn4)[C@@H]3C2)nc2ccccc21` (stereo partly drawn) came in with a bioavailability of 27%.

Broadly, the bioavailability is the share of a dose that reaches the circulation, judged against a reference dose that is usually intravenous. Low values mean poor availability, high ones good availability.
